Results as given in article PMC7179653 (Antimicrobial Agents and Chemotherapy, 2020).
Like-named read-outs stand apart in the source and are kept apart here.

Key:
[1] = design: method as in PMID 25813217, PMID 29914955, PMID 27527080, PMID 29437614; settings: healthy individuals; cited from earlier work
clinical = settings: human, in vivo
Method: All participants in the active group received a single 2,000-mg dose of both drugs on day 3 and q8h on days 4 to 8, with a final single dose of both drugs on the morning of day 9. A washout period of approximately 24 h between treatments was provided. Study treatments were administered as 30-min (SAD study) or 90-min (MAD study) i.v. infusions, the latter to investigate the pharmacokinetics using a longer infusion time, which is commonly used to increase the time above the MIC of β-lactams ([15]). The choice of a 90-min infusion time for the MAD study was dictated by the stability and toxicology data available at the time the study was being designed. […] Safety assessments included monitoring of AEs, laboratory safety tests (hematology, serum chemistry, and urinalysis), 12-lead ECG (discrete recordings and 24-h Holter recording), and vital signs (blood pressure, pulse rate, and body temperature). In the SAD study, safety assessments were performed predose at screening, at day 1, postdose periodically on days 1, 2, and 7 (follow-up), and at early withdrawal, if relevant. […] In the MAD study, safety assessments were done predose at screening, at day 2, postdose periodically on days 1, 2, 4, 7, and 8, on days 13 to 15 (follow-up), and at early withdrawal, if relevant. […] On all other days, a single predose sample was collected for pharmacokinetic evaluation prior to the morning infusion. Blood was collected into lithium-heparin tubes and stored at a nominal –80°C temperature until analysis.

## NC(=O)[C@@H]1CC[C@@H]2CN1C(=O)N2OS(=O)(=O)O [avibactam]
[1]
  half-life: approximately 2 h

## C[C@@H](O)[C@H]1C(=O)N2C(C(=O)O)=C(S[C@@H]3CN[C@H](C(=O)N(C)C)C3)[C@H](C)[C@H]12 [meropenem]
clinical
  Tmax: 1 h
clinical; CL
  clearance: 253 mL/min
clinical; CLr
  CL renal: 161 mL/min
clinical; Vdss
  Vd: 19.8 L
clinical; t1/2
  half-life: 1.3 h

## O=C(NC1CCNCC1)[C@@H]1CC[C@@H]2CN1C(=O)N2OS(=O)(=O)O [relebactam]
[1]
  half-life: approximately 2 h

## O=C(O)C[C@@H]1CC[C@H](NC(=O)Cc2cccs2)B(O)O1 [vaborbactam]
[1]
  half-life: approximately 2 h
